From the Deep4Chem optical property database

Assay: photoluminescence quantum yield (fraction); solvent given as SMILES

CCN1/C(=C\c2c(-c3ccc(N(C)C)cc3)c(=O)c2=O)C=Cc2ccccc21
photoluminescence quantum yield (in C1CCCCC1): 0.0276 | photoluminescence quantum yield (in Cc1ccccc1): 0.0226 | photoluminescence quantum yield (in ClCCl): 0.001

CCCc1c(C(=O)c2ccc3c4c(cccc24)-c2cccc4c2C3CC=C4)c2ccc3cccc4c5cccc6ccc1c(c65)c2c34 (configuration not stated)
photoluminescence quantum yield (in ClCCl): 0.058

Cc1ccc(C)c2nc3c(=O)[nH]c(=O)[nH]c3nc12
photoluminescence quantum yield (in CC#N): 0.08

O=C([O-])c1ccc(C(=O)[O-])c(C2=c3cc4c5c(c3Oc3c2cc2c6c3CCCN6CCC2)CCC[N+]=5CCC4)c1
photoluminescence quantum yield (in CCO): 0.83 | photoluminescence quantum yield (in O): 0.64

O=C(c1ccc(-n2c3ccccc3c3cc(-n4c5ccccc5c5ccccc54)ccc32)cc1)c1ccc(-n2c3ccccc3c3cc(-n4c5ccccc5c5ccccc54)ccc32)cn1
photoluminescence quantum yield (in Cc1ccccc1): 0.38 | photoluminescence quantum yield (in O=P(c1ccccc1)(c1ccccc1)c1ccccc1Oc1ccccc1P(=O)(c1ccccc1)c1ccccc1): 0.73

CCC1=C(C)C2=Cc3cscc3B(O)N2C1=O
photoluminescence quantum yield (in CC#N): 0.97 | photoluminescence quantum yield (in CCCCCC): 0.18 | photoluminescence quantum yield (in CO): 0.35 | photoluminescence quantum yield (in CS(C)=O): 0.87 | photoluminescence quantum yield (in ClC(Cl)Cl): 0.2

O=C(O)CCCOc1cc2ccc3cccc4ccc(c1)c2c34
photoluminescence quantum yield (in CO): 0.77

COc1ccc2cc([C@H](C)C(=O)O)ccc2c1
photoluminescence quantum yield (in C1CCOC1): 0.45 | photoluminescence quantum yield (in CC#N): 0.31 | photoluminescence quantum yield (in CC(C)O): 0.23 | photoluminescence quantum yield (in CCCCO): 0.17 | photoluminescence quantum yield (in CCO): 0.18 | photoluminescence quantum yield (in CO): 0.18 | photoluminescence quantum yield (in ClCCl): 0.32 | photoluminescence quantum yield (in O): 0.41

Nc1cccc2cccc(N)c12
photoluminescence quantum yield (in CC#N): 0.1 | photoluminescence quantum yield (in CO): 0.09 | photoluminescence quantum yield (in CS(C)=O): 0.3 | photoluminescence quantum yield (in Cc1ccccc1): 0.13

Cc1cn(C)c(=O)nc1-n1cncn1
photoluminescence quantum yield (in O): 0.071

CC1(C)c2ccccc2N(c2ccc(-c3nnc(-c4cc(-c5ccccc5)c(-c5ccccc5)c(-c5ccccc5)c4-c4ccccc4)o3)cc2)c2ccccc21
photoluminescence quantum yield (in Cc1ccccc1): 0.235 | photoluminescence quantum yield (in c1ccc(-n2c(-c3c(-n4c5ccccc5c5ccccc54)cccc3-n3c4ccccc4c4ccccc43)nc3ccccc32)cc1): 0.359

CC1=C(/C=C/c2ccccc2)C(C)=[N+]2C1=C(c1ccccc1)c1c(C)c(/C=C/c3ccccc3)c(C)n1[B-]2(F)F
photoluminescence quantum yield (in ClC(Cl)Cl): 0.01

C(=C(c1ccccc1)c1ccccc1)c1ccc(-c2cc(-c3ccc(C=C(c4ccccc4)c4ccccc4)cc3)cc(-c3ccc(C=C(c4ccccc4)c4ccccc4)cc3)c2)cc1
photoluminescence quantum yield (in C1CCOC1): 0.0045

Clc1ccc(/C=C/c2ccc(-c3nc4c5cccnc5c5ncccc5c4[nH]3)cc2)cc1
photoluminescence quantum yield (in C1CCOC1): 0.42 | photoluminescence quantum yield (in CC#N): 0.26 | photoluminescence quantum yield (in CO): 0.16 | photoluminescence quantum yield (in ClCCl): 0.34

CCC1=C(C2=C(C3=C(CC)S(=O)(=O)c4cc(-c5ccc(C)s5)ccc43)C(F)(F)C(F)(F)C2(F)F)c2ccc(-c3ccc(C)s3)cc2S1(=O)=O
photoluminescence quantum yield (in C1COCCO1): 0

Cc1ccc(C2=C3C=CC(c4ccccc4)=[N+]3[B-](F)(F)n3c2ccc3-c2ccccc2)cc1
photoluminescence quantum yield (in C1CCCCC1): 0.31 | photoluminescence quantum yield (in C1CCOC1): 0.22 | photoluminescence quantum yield (in C1COCCO1): 0.25 | photoluminescence quantum yield (in CCOC(C)=O): 0.2 | photoluminescence quantum yield (in CO): 0.21 | photoluminescence quantum yield (in Cc1ccccc1): 0.42 | photoluminescence quantum yield (in ClC(Cl)Cl): 0.31

CCCCCCCCCCCCNc1cccc2[n+]1[B-](F)(F)n1c(c3cccc4cccc1c43)=N2
photoluminescence quantum yield (in C1CCOC1): 0.18 | photoluminescence quantum yield (in CC#N): 0.12 | photoluminescence quantum yield (in CCCCCC): 0.58 | photoluminescence quantum yield (in Cc1ccccc1): 0.36 | photoluminescence quantum yield (in ClCCl): 0.25

c1ccc2c(c1)Cc1ccccc1N2c1c2ccccc2cc2ccccc12
photoluminescence quantum yield (in Cc1ccccc1): 0.06

Fc1ccc(-c2c3ccccc3nc3cc4ccccc4cc23)cc1
photoluminescence quantum yield (in ClCCl): 0.48

CC(=O)c1ccc(C#Cc2ccc3c(N(C)C)cc(-c4ccccc4)cc3c2)cc1
photoluminescence quantum yield (in ClCCl): 0.01

CCC12C(=C3C(=C4c5ccccc5S(=O)(=O)C41CC)C(F)(F)C(F)(F)C3(F)F)c1ccccc1S2(=O)=O (configuration not stated)
photoluminescence quantum yield (in C1COCCO1): 0.22

COC(=O)c1nc(-c2ccc(OC)cc2)oc1C
photoluminescence quantum yield (in C1CCCCC1): 0.55 | photoluminescence quantum yield (in CC#N): 0.38 | photoluminescence quantum yield (in CCO): 0.41 | photoluminescence quantum yield (in CCOC(C)=O): 0.31

COc1ccc(-c2nnc(-c3cc(-n4c5ccccc5c5ccccc54)c(-n4c5ccccc5c5ccccc54)cc3-c3nnc(-c4ccc(OC)cc4)o3)o2)cc1
photoluminescence quantum yield (in Cc1ccccc1): 0.47

COc1ccc2n1[B-](F)(F)[N+]1=C(SC#N)C=CC1=C2c1ccccc1
photoluminescence quantum yield (in CC#N): 0.05 | photoluminescence quantum yield (in CCCCCC): 0.08 | photoluminescence quantum yield (in CCOC(C)=O): 0.04 | photoluminescence quantum yield (in CO): 0.05 | photoluminescence quantum yield (in ClCCl): 0.07

CCC1=C(C)c2cc3c(OC)cc(OC)cc3c(=O)n2C1=O
photoluminescence quantum yield (in CC#N): 0.54 | photoluminescence quantum yield (in CO): 0.44 | photoluminescence quantum yield (in CS(C)=O): 0.6 | photoluminescence quantum yield (in ClC(Cl)Cl): 0.6

Cc1ccccc1C
photoluminescence quantum yield (in C1CCCCC1): 0.26

Cc1ccc(-n2c3ccccc3c3cc(C=C(C#N)C#N)ccc32)cc1
photoluminescence quantum yield (in C1CCOC1): 0.12 | photoluminescence quantum yield (in CC#N): 0.04 | photoluminescence quantum yield (in CC(C)=O): 0.05 | photoluminescence quantum yield (in CCOC(C)=O): 0.09 | photoluminescence quantum yield (in CO): 0.03 | photoluminescence quantum yield (in CS(C)=O): 0.04 | photoluminescence quantum yield (in Cc1ccccc1): 0.11 | photoluminescence quantum yield (in ClC(Cl)Cl): 0.08

C(=C\c1ccc(/C=C/c2ccc(N(c3ccccc3)c3ccccc3)cc2)c2nsnc12)/c1ccc(N(c2ccccc2)c2ccccc2)cc1
photoluminescence quantum yield (in C1CCOC1): 0.228 | photoluminescence quantum yield (in CCOC(C)=O): 0.275 | photoluminescence quantum yield (in CN(C)C=O): 0.061 | photoluminescence quantum yield (in Cc1ccccc1): 0.345 | photoluminescence quantum yield (in ClC(Cl)Cl): 0.148 | photoluminescence quantum yield (in ClCCl): 0.137

CCCCCCCCCCN1C(=O)c2cc(NCCCOCCO)c3c4c(cc(NCCCOCCO)c(c24)C1=O)C(=O)N(CCCCCCCCCC)C3=O
photoluminescence quantum yield (in CO): 0.43 | photoluminescence quantum yield (in ClC(Cl)Cl): 0.58

Cc1cc(-c2cccc3ccccc23)cc(C)[o+]1
photoluminescence quantum yield (in ClCCl): 0.22

CCN(CC)c1ccc2cc(-c3cc(SC)c(C#N)c(=O)o3)c(=O)oc2c1
photoluminescence quantum yield (in C1CCOC1): 0.72 | photoluminescence quantum yield (in CC#N): 0.56 | photoluminescence quantum yield (in CC(C)=O): 0.67 | photoluminescence quantum yield (in CCOC(C)=O): 0.8 | photoluminescence quantum yield (in CN(C)C=O): 0.4 | photoluminescence quantum yield (in CO): 0.55 | photoluminescence quantum yield (in CS(C)=O): 0.55 | photoluminescence quantum yield (in Cc1ccccc1): 0.72 | photoluminescence quantum yield (in ClC(Cl)Cl): 0.66 | photoluminescence quantum yield (in ClCCl): 0.81

Cc1cc(C)c(B(c2ccc(-c3ccc4ccc5cccc6ccc3c4c56)cc2)c2c(C)cc(C)cc2C)c(C)c1
photoluminescence quantum yield (in Cc1ccccc1): 0.61

C(#Cc1cnc(C#Cc2ccccc2)nc1)c1ccccc1
photoluminescence quantum yield (in C1CCCCC1): 0.0009

Cc1ccc(C2=C3C=CC=[N+]3[B-](F)(F)n3cccc32)cc1
photoluminescence quantum yield (in C1CCCCC1): 0.036 | photoluminescence quantum yield (in CC#N): 0.018 | photoluminescence quantum yield (in CCO): 0.025 | photoluminescence quantum yield (in CCOC(C)=O): 0.024 | photoluminescence quantum yield (in CO): 0.018 | photoluminescence quantum yield (in OCC(F)(F)F): 0.031

Cc1cc(C)c(B(c2ccc(-c3ccc(-c4nc5c6ccccc6c6ccccc6c5[nH]4)cc3)cc2)c2c(C)cc(C)cc2C)c(C)c1
photoluminescence quantum yield (in C1CCOC1): 0.74 | photoluminescence quantum yield (in CC(C)=O): 0.56 | photoluminescence quantum yield (in CS(C)=O): 0.49 | photoluminescence quantum yield (in Cc1ccccc1): 0.68 | photoluminescence quantum yield (in ClCCl): 0.59

COC(=O)c1c(C(=O)OC)c2ccc(C)nn2c1C
photoluminescence quantum yield (in CCCCCC): 0.348

CCC(CC)COC1=CC2=C3c4cc(OCC(CC)CC)c(-c5cccs5)n4[B-](F)(F)[n+]4c3n(c3cc(C(C)(C)C)ccc34)[B-](F)(F)[N+]2=C1c1cccs1
photoluminescence quantum yield (in C1CCOC1): 0.07 | photoluminescence quantum yield (in ClCCl): 0.07

CCCCCCc1cc(-c2ccc3c(c2)C2CCCC2N3c2ccc3c(c2)C(C)(C)c2ccccc2-3)sc1/C=C1\C(=O)c2ccc(C(=O)O)cc2C1=O (configuration not stated)
photoluminescence quantum yield (in ClC(Cl)Cl): 0.24

C[Si]1(c2ccccc2)C(c2ccc(-n3c4ccccc4c4ccccc43)cc2)=C(c2ccccc2)C(c2ccccc2)=C1c1ccc(-n2c3ccccc3c3ccccc32)cc1
photoluminescence quantum yield (in C1CCOC1): 0.032

COc1cc2c(cc1OC)C1=C[C@H](c3ccccc3)C3(C(C#N)=C(C#N)N1CC2)c1cc(Br)ccc1-c1ccc(Br)cc13
photoluminescence quantum yield (in ClCCl): 0.00059

CC(C)(C)c1ccc2c(c1)c1cc(C(C)(C)C)ccc1n2-c1ccc(N(c2ccc(-c3ccc(-c4ccc(-c5ccc(-c6ccc(N(c7ccc(-n8c9ccc(C(C)(C)C)cc9c9cc(C(C)(C)C)ccc98)cc7)c7ccc(-n8c9ccc(C(C)(C)C)cc9c9cc(C(C)(C)C)ccc98)cc7)cc6)cc5)c5nsnc45)cc3)cc2)c2ccc(-n3c4ccc(C(C)(C)C)cc4c4cc(C(C)(C)C)ccc43)cc2)cc1
photoluminescence quantum yield (in ClCCl): 0.03

CCN(CC)c1ccc2cc(/C=C/C3=CC(/C=C/c4cc5ccc(N(CC)CC)cc5oc4=O)=[O+][B-](F)(F)O3)c(=O)oc2c1
photoluminescence quantum yield (in CC#N): 0.012 | photoluminescence quantum yield (in CC(C)=O): 0.032 | photoluminescence quantum yield (in CCOC(C)=O): 0.418 | photoluminescence quantum yield (in CN(C)C=O): 0.096 | photoluminescence quantum yield (in CS(C)=O): 0.008 | photoluminescence quantum yield (in Cc1ccccc1): 0.849 | photoluminescence quantum yield (in ClC(Cl)Cl): 0.504 | photoluminescence quantum yield (in ClCCl): 0.271

Cc1cc(C)c([B-]2(c3c(C)cc(C)cc3C)[O+]=P(c3ccccc3)(c3ccccc3)c3cc(C#Cc4ccccc4)sc3-c3sc(C#Cc4ccccc4)cc32)c(C)c1
photoluminescence quantum yield (in C1CCOC1): 0.063

COc1cc(-c2nc3sc4ccccc4c3s2)cc(OC)c1OC
photoluminescence quantum yield (in CS(C)=O): 0.6

CCN(CC)c1ccc(C(=C(c2ccc(B(c3c(C)cc(C)cc3C)c3c(C)cc(C)cc3C)cc2)c2ccc(B(c3c(C)cc(C)cc3C)c3c(C)cc(C)cc3C)cc2)c2ccc(N(CC)CC)cc2)cc1
photoluminescence quantum yield (in C1CCOC1): 0.29

COc1ccccc1-c1nc(-c2ccc(C(F)(F)F)cc2)n(-c2ccc(C)cc2)c1-c1ccccc1OC
photoluminescence quantum yield (in CC(C)O): 0.65 | photoluminescence quantum yield (in CCCCCC): 0.49 | photoluminescence quantum yield (in CO): 0.6 | photoluminescence quantum yield (in CS(C)=O): 0.49 | photoluminescence quantum yield (in ClCCl): 0.27

COc1ccc(-c2cn3cc(C)c[n+]3[n-]2)cc1
photoluminescence quantum yield (in ClCCl): 0.025

CCN1c2ccc(/C=N/Nc3ccccn3)cc2Sc2cc(-c3cccc4ccccc34)ccc21
photoluminescence quantum yield (in C1CCOC1): 0.2 | photoluminescence quantum yield (in CS(C)=O): 0.35 | photoluminescence quantum yield (in Cc1ccccc1): 0.1 | photoluminescence quantum yield (in ClCCl): 0.3

N#Cc1c(-n2nnc3c2-c2ccccc2CN(C(=O)CCN)c2ccccc2-3)n([C@H]2C[C@H](O)[C@@H](CO)O2)c2ncnc(N)c12
photoluminescence quantum yield (in CO): 0.005
